Assay results taken from patent publication US12383534B2, “Methods for treating cancer” (REGENTS OF THE UNIVERSITY OF MINNESOTA, priority 2021, dated 2025).

What was measured:
[1] = system: Kitra-SRS cells (CIC-DUX4 sarcoma cell line); assay: Cell viability (ATP) assay in Kitra-SRS cells; format: cell-based, human; conditions: day 2
Method: (§1) Basal media were purchased from HyClone, fetal bovine serum (FBS) was from PeakSerum (Ps-FB3, lot 293Q16), and Glutamax (Glu) and Penicillin/Streptomycin (P/S) were from GIBCO. NCC-CDS-X1 (CIC-DUX4 sarcoma cell line, a generous gift from Tadashi Kondo) cell line was cultured in RPMI with 10% FBS, Glu and P/S, Kitra-SRS (CIC-DUX4 sarcoma cell line, a generous gift from Hidetatsu Otani), 3T3, 293T and C2C12 cell lines were cultured in DMEM/10% FBS/Glu/P/S. The immortalized human myoblast LHCN-M2 cell line was cultured in proliferation medium: F10 supplemented with 20% FBS, 2-mercaptoethanol 1× (GIBCO), 10^−9 M dexamethasone (Sigma), 10 ng/mL bFGF (Peprotech), and Glu/P/S. All cells were cultured at 37° C. in a 5% CO2 atmosphere.
(§2) Cell lines were plated in a 96 well dish (1×10^5 cells/well), and the following day were treated with iP300w or its stereoisomers. ATP assays were performed using CellTiter-Glo® Luminescent Cell Viability Assay (Promega) according to the manufacturer's instructions. Luminescence was analyzed on POLARstar Optima Microplate Reader (BMG Labtech, Offenburg, Germany).
To evaluate the consequences of iP300w treatment of CDS cells, its effects on both monolayer cultures as well as 3D spheres was determined in both CDS cell lines. […] Using the cell viability assay, it was determined that 0.003 μM was the lowest effective concentration on day 2 in both lines (FIG. 2B).

[2] = system: CIC-DUX4 target genes ETV1, 4, and 5; assay: RT-qPCR for CIC-DUX4 target genes in NCC-CDS-X1 cells; format: cell-based, human; conditions: NCC-CDS-X1, 24 hours, 0.03 and 0.3 μM
Method: (§3) RNA was extracted using an RNA extraction kit (Zymo) and cDNA was made using 0.5 μg total RNA with oligo-dT primer and Verso cDNA Synthesis Kit (Thermo Scientific) following the manufacturer's instructions. qPCRs were performed by using Premix Ex Taq (Probe qPCR, Takara) or SYBR-green. Gene expression levels were normalized to that of GAPDH and analyzed with 7500 System Software using the ACT method (Applied Biosystems). RNA-seq library preparation was done with 500 ng total RNA from NCC-CDS-X1 cells treated for 4 or 24 hours with iP300w (0.3 μM) using the Swift Rapid RNA Library Kit (SwiftBioscience). 36 base paired-end sequencing was performed on an Illumina NextSeq instrument at the University of Minnesota Genomics Center.
Next, the effect of the stereoisomers on the CIC-DUX4 target genes in cells cultured with the compounds for 24 hours was analyzed.

[3] = system: NCC-CDS-X1 spheres; assay: Spheroid assay; format: cell-based, human; conditions: day 4 and 8
Method: For spheroid formation assays, 2.5×10^4 NCC-CDS-X1 cells were seeded into 96-well plates (96-well Clear Flat Bottom Ultra-Low Attachment Microplate; Corning, Inc., Corning, NY, USA) in MEM/10% FBS media. Treatment with iP300w was started two days after the plating when the cells formed compact spheres.

[4] = system: NCC-CDS-X1 cells; assay: EdU incorporation (FACS) in NCC-CDS-X1 cells; format: cell-based, human
Method: EdU labeling and visualization was done using Click-iT® EdU Flow Cytometry Assay Kit (Thermo Fisher Scientific). Briefly, 1×10^5 NCC-CDS-X1 cells were plated in each well of a 24-well plate. The following day, continual treatment with 0.3 μM iP300w was initiated. For the pulse experiment, cells were treated with iP300w for 4 or 24 hours and analyzed 24 hours later. Cells were cultured with EdU ([…]) in the last 4 hours of the experiment, and samples were prepared for analyses according to the manufacture's instruction. FACS analyses were performed on a BD FACSAria instrument and data was analyzed using FlowJo (BD Biosciences). Experiments were performed on at least three biological replicates.

[5] = system: CIC-DUX4 target genes like ETV4 and CCNE1 in ES cell lines (AF573, TC71, A673); assay: RT-qPCR for CIC-DUX4 target genes in Ewing sarcoma cell lines; format: cell-based; conditions: 0.03 μM, 18 hours
Method: as §3
To determine whether iP300w was particularly active against CDS cells, vis-à-vis other related cancer cell lines, viability of 3 different Ewing sarcoma (ES) cell lines and several different immortalized cell lines treated with iP300w were compared. […] Furthermore, gene expression analyses confirmed the specificity of iP300w to CDS.

[6] = system: Panc1, MiaPaca2, CFPac1 pancreatic cancer cells; assay: Cell viability (ATP) assay in pancreatic cancer cells; format: cell-based; conditions: serial dilutions, 48 hours
Method: as §2
Pancreatic and colorectal cancer cell lines were treated with iP300w to further distinguish its specificity to CDS from general cytotoxicity. p300/CBP have been correlated with the invasive and migratory properties of pancreatic and colorectal cancers (Iyer, N. G. et al., Proceedings of the National Academy of Sciences of the United States of America 101, 7386-7391 (2004); and Paladino, D. et al, Oncotarget 7, 7253-7267 (2016)). […] This further supports the specific efficacy of iP300w against cancers bearing p300-dependent oncogenic fusion transcription factors (such as CIC-DUX4), vis-à-vis cancers that may show some degree of growth inhibition by iP300w due simply to p300-dependent proliferative pathways.

[7] = system: LCHN-Myoblast; assay: ATP assay on LCHN-Myoblast; format: cell-based, human; conditions: after 3 days of treatment (FIG. 10C)
Method: as §1
as §2, with “Germany). […]” for “Germany).”

CNC(=O)Cn1cc(-c2ccc3c(c2)[C@H](F)C[C@]32NC(=O)N(CC(=O)N(Cc3ccc(F)cc3)[C@@H](C)C(F)(F)F)C2=O)cn1 (single isomer, unassigned) [iP300w]
lowest effective concentration in cell viability assay [1]: 0.003 µM | down-regulation of direct CIC-DUX4 targets ETV1, 4, and 5 [2]: Significant down-regulation | effect on CDS cell sphere formation and growth [3]: dose and time inhibitory effect | proliferation rate after 4-hour pulse ([4]; 0.3 μM 4-hour pulse, measured 20 hours later): significantly reduced proliferation rate | cell cycle recovery after 24-hour pulse ([4]; 0.3 μM treated for 24 hours, 48 hours after the pulse): not able to restore the cell cycle | EdU labeling of proliferating cells ([4]; continual treatment 0.3 μM, 48 hours): virtually no cells were labelled | effect on basal expression of CIC-DUX4 target genes and cell cycle-related genes [5]: did not affect the basal expression | effect on cell viability [6]: no significant effect on cell viability | concentration giving mild suppression of proliferation [7]: ≥ 0.3 µM
